According to patent US10752612B2, “PLK4 inhibitors” (LUDWIG INSTITUTE FOR CANCER RESEARCH LTD, priority 2015, dated 2020):
Read-outs that look alike come from different tables or passages of the source.

Legend:
HeLa cells = experiment: Quantification of centrosome numbers from fixed samples, HeLa; type: cell-based, human; settings: for foci of centriolar and pericentriolar material markers: centrinone treatment
Method: Quantification of centrosome numbers from fixed samples. Cells were seeded onto poly-D-lysine-coated coverslips (Neuvitro) in 12-well plates at least 8 hours before fixation. At the required timepoints for each experiment, cells were washed once with PBS and fixed in 100% methanol (−20° C., 5 minutes). Fixed cells were washed with PBS, blocked with PBS+4% BSA+0.1% Triton X-100, and stained with primary antibodies against γ-tubulin and Cep192, which localize to the pericentriolar material and proximal to the outer centriole wall, respectively (47, 48). Alexa488-labeled anti-mouse secondary antibody (against anti-γ-tubulin) and Alexa647-labeled anti-rabbit secondary antibody (against anti-Cep192) were both used at 1.5 jag/mL. Samples were mounted onto slides with Prolong Gold antifade reagent (Life Technologies). Images of fixed interphase cells were acquired on a Nikon Eclipse E800 with a 60×1.4 NA PlanApo objective and ORCA-ER camera (Hamamatsu) using Metamorph software (Molecular Devices). Quantification of foci was performed manually. A focus was defined as a bona-fide centrosome if it was positive for both γ-tubulin and Cep192 (true for >95% of foci).

NIH/3T3 cells [1] = experiment: Analysis of mitosis, NIH/3T3 centrin-GFP H2B-RFP; type: cell-based, mouse; settings: centrosome-less NIH/3T3 cells
Method: Analysis of mitosis and daughter cell fate. […] Cells were seeded into 96-well cycloolefin plates at 5000 cells/well, 8-10 hours before imaging. Movies were acquired on the CV1000 with a 40×0.95 NA U-PlanApo objective. The imaging chamber was maintained at 37° C. and 5% CO2. Image acquisition and data analysis were performed using CellVoyager software. 20 fields/well were imaged. For HeLa and NIH/3T3 cells, 5×2 μm z-sections in the GFP (25% power, 125 ms, 30% gain) and RFP (25% power, 100 ms, 30% gain) channels were captured in each field, at 5-minute intervals for 24 hours. For RPE1 cells, 5×2 μm z-sections in the GFP (20% power, 100 ms, 30% gain) and RFP (25% power, 100 ms, 30% gain) channels were captured in each field, at 5-minute intervals for 8 hours. To track RPE1 daughter cell fate, imaging was then switched to 3×4 μm z-sections in the RFP channel only, at 10-minute intervals for 48 hours. Mitosis was measured from nuclear envelope breakdown to anaphase onset (or arrest). Results represent combined measurements of 100 mother cells per condition from 2-4 independent experiments.

RPE1 Plk4 G95L cells = experiment: Centrosome number and passaging assay, RPE1 Plk4 G95L knock-in; type: cell-based, human; settings: RPE1, both PLK4 alleles G95L
Source text: For generation of RPE1 cells with a Plk4(G95L) knock-in, we targeted the intronic region between exons 4 and 5 of the Plk4 locus with a gRNA sequence ([…], SEQ ID NO: 1) cloned into pX458 (a gift from Feng Zhang; Addgene plasmid #48138; 44). A repair template was cloned to introduce the G95L point mutation, as well as a neomycin resistance cassette within the intronic region (see FIG. 15). RPE1 cells were transfected with the Cas9/gRNA plasmid, then transduced with adeno-associated virus coding for the repair template using previously described methods (45). Cells were selected in 96-well plates for 2 weeks using 0.5 mg/ml Geneticin (Life Technologies). Positive clones homozygous for the G95L knock-in were identified by PCR and sequencing of genomic DNA.
(§1) Passaging assays. Cells were seeded into 10 cm tissue culture plates at 150,000 (HeLa, NIH/3T3 and RPE1) or 200,000 cells/plate (primary fibroblasts). Compounds were added at the indicated concentrations. At 4-day intervals, cells were harvested, counted using a TC10 cell counter, and re-seeded into new plates at the densities above. Results are from 2 independent experiments.

[2] = tested on: Xenopus multiciliated cells; experiment: Multiciliation assay in Xenopus embryos; type: in vivo
Method: Multiciliation assay in Xenopus embryos. Xenopus embryos were obtained by in vitro fertilization using standard protocols (49) approved by the Northwestern University Institutional Animal Care and Use Committee. Fertilized Xenopus embryos were injected with mRNA encoding the centriole marker Centrin4-GFP (333 pg/embryo) and a Dexamethasone-inducible Multicilin (hGR 3′MCI; 160 pg/embryo) (50, 51). […] Embryos were treated for 13 hours at room temperature, fixed in 4% paraformaldehyde and treated with the actin stain phalloidin. Confocal image stacks were collected using a Nikon AIR microscope and centriole numbers were manually quantified in Nikon Elements software. For each condition, centriole numbers were quantified from approximately 100 cells from at least 3 embryos.

panel of 19 cell lines = experiment: Proliferation after centrosome depletion, panel of cell lines; type: cell-based; settings: panel of 19 cell lines (Table 6)
Method: Proliferation assays. For each condition, cells were seeded in triplicate into 6-well plates at 50,000 cells/well. Compounds were added at the indicated concentrations. At 24-hour intervals, 3 wells were harvested per condition. Cell counting was performed using a TC10 automated cell counter (Bio-Rad). Results are from 3 independent experiments.

NIH/3T3 cells [3] = experiment: Cilia formation assay in NIH/3T3 cells; type: cell-based, mouse; settings: serum-starved NIH/3T3
Method: Cilia formation assay in NIH/3T3 cells. […] Cells were seeded onto coverslips and starved for 40 hours by replacing their media with DMEM+0.5% defined bovine serum. Cells were then washed with PBS, fixed with 100% methanol (−20° C., 5 minutes), stained with antibodies against γ-tubulin and IFT-88, and mounted onto slides. Image acquisition and deconvolution were performed on the DeltaVision system, as above. Subsequent image processing was performed in ImageJ.

RPE1 cells = experiment: Passaging assay and flow cytometry, RPE1; type: cell-based, human
Method: as §1
Flow cytometry. Cells were seeded into 15 cm tissue culture plates such that each plate was 50-80% confluent at the time of harvesting. Cells were de-adhered by trypsinization and pelleted in 15 ml tubes by centrifugation. Each pellet was resuspended in 0.3 mL PBS, and 0.7 mL ice-cold 100% ethanol was added to the tube while gently vortexing. Fixed cells were stored at 4° C. for up to 2 weeks. For DNA content analysis, fixed cells were pelleted, washed twice with PBS, and resuspended in 0.5 mL PBS+2% BSA and Alexa488-conjugated anti-p-H3(Ser10) antibody. Samples were incubated for 1 hour at 4° C., then washed twice with PBS+2% BSA. Pellets were resuspended in 1 mL PBS+2% BSA, 10 μg/ml propidium iodide (Sigma-Aldrich), 500 µg/ml RNAse A (Thermo Scientific). Samples were incubated at 37° C. for 30 minutes, then transferred to 12×75 mm tubes for analysis. Data were acquired using FACSDiva software on a LSR II flow cytometer (BD Biosciences). 50,000 cells were analyzed per condition. Cell cycle fitting was performed using ModFit LT (Verity Software House).

Q: With `COc1c(Nc2cc(C)[nH]n2)nc(Sc2ccc(S(=O)(=O)Cc3cccc([N+](=O)[O-])c3F)cc2F)nc1N1CCOCC1` [Centrinone, 2-((2-fluoro-4-((2-fluoro-3-nitrobenzyl)sulfonyl)phenyl)thio)-5-methoxy-N-(5-methyl-1H-pyrazol-3-yl)-6-morpholinopyrimidin-4-amine] as the compound, how does the “centrosome number directly after washout from long-term treated cells” value (HeLa cells; HeLa (also BT549, N1E-115-1)) read?
A: The value was “initial wave of centrosome overduplication”.

Q: And the “centrosome numbers after washout” value (HeLa cells; HeLa, 10 days following washout)?
A: The value was “all cells exhibited normal centrosome numbers”.

Q: And the “foci of centriolar and pericentriolar material markers” value (HeLa cells; HeLa)?
A: The value was “loss of all markers from cells”.

Q: What about the “foci of centriolar and pericentriolar material markers” value (HeLa cells; HeLa, listed as centrinone) of the same compound?
A: Its value is “most cells lacked centrioles/centrosomes”.

Q: And the “increase in mitotic duration” value (NIH/3T3 cells [1])?
A: Its value is roughly 20 min.

Q: What about the “centrosome loss and proliferation” value (RPE1 Plk4 G95L cells) of the same compound?
A: The value was “did not lead to centrosome loss or proliferation arrest”.

Q: What about the “centriole number in multiciliated cells” value [2] of the same compound?
A: The value was “dramatically reduced centriole numbers”.

Q: And the “centriole number in multiciliated cells” value ([2]; listed as centrinone)?
A: The value was “reduced centriole number”.

Q: And the proliferation after treatment (panel of 19 cell lines)?
A: The proliferation after treatment was “continued to proliferate”.

Q: What about the primary cilia (NIH/3T3 cells [3]) of the same compound?
A: The primary cilia was “prevents assembly of primary cilia”.

Q: And the “cell cycle after centrosome depletion” value (RPE1 cells; RPE1, 12-day passaging assay and flow cytometry)?
A: Its value is “cell cycle arrest in G1”.

Q: What about the proliferation after washout (RPE1 cells; RPE1, addition Day 0, washout Day 8) of the same compound?
A: The proliferation after washout was “did not”.
